How the values were obtained:
[1] = tested on: EV-A71; test: Viral RNA quantification by RT-qPCR; assay type: cell-based; conditions: for effect on viral RNA level: 8 μM; for decrease of extracellular viral RNA level: 25 μM, EV-A71 MOI 1 for 12 hours; for decrease of extracellular viral RNA level / decrease of viral RNA / viral RNA level (in words): RD cells; for decrease of viral RNA: 50 μM; for decrease of viral RNA / viral RNA level (in words): intracellular viral RNA; for viral RNA level (in words): indicated concentrations
Protocol: FIGS. 7A-7D Ser78 phosphorylation-deficient Hsp27 inhibits EV-A71 replication and propagation (FIG. 7A) HEK 293T cells were transfected with 500 ng Hsp27 (WT, 3A, S15A, S78A, S82A) plasmids for 48 hours, and then infected with EV-A71 at an MOI of 10 for 9h. Intracellular viral RNA were extracted and quantified by qPCR. (FIG. 7B) HEK 293T cells were transfected with 500 ng Hsp27 (WT, 3D, S15D, S78D, S82D) plasmids for 48 hours, and then infected with EV-A71 at an MOI of 10 for 9h. Intracellular viral RNA were extracted and quantified by qPCR. (FIG. 7C) HEK 293T cells were transfected with 500 ng Hsp27 (WT, S78A, S78D) plasmids for 48 hours, and treated with 8 μM SB203580 2 hours before infection with EV-A71. (FIG. 7D) HEK 293T cells were transfected with 500 ng Hsp27 (WT, 3A, S15A, S78A, S82A) plasmids for 48 hours, and then infected with EV-A71 at an MOI of 10 for 12h. Viral titration was calculated by TCID50. Statistical analyses were carried out using Student's t-test. *: p<0.05, **: p<0.01, ***: p<0.001. Data are expressed as mean ±SD.
(§1) FIGS. 10A-10K. Peptide S78 inhibited EV-A71 replication and propagation. (FIG. 10A) RD cells were pre-treated with peptides S78 or for 2 hours and infected with EV-A71 at the MOI of 10 for 6 hours. Cell lysates were collected for western blot assay. Hsp27 phosphorylation on Ser 15, 78, 82 were detected by specific antibodies. β-Actin were detected as internal control. (FIG. 10B) Densitometric analysis of FIG. 9A. (FIG. 10C) HEK 293T cells were pre-treated with peptides S78 or S78A at the concentration of 25 μM for 2 hours and then co-transfected with Hsp27-WT plasmid (800 ng), pIRES reporter plasmid (200 ng) and 2A^pro-expressing plasmid or 2AC110A-expressing plasmid (200 ng) for 24 h, then the luciferase activity was measured. (FIG. 10D-10E) RD cells were treated with peptides S78 or S78A and then infected with EV-A71. EV-A71 VP1 were detected. (FIG. 10F) RD cells were treated with peptides and then infected with EV-A71 at the MOI of 1 for 12 hours. The EV-A71-induced CPE was captured. (FIG. 10G-10H) Intracellular viral RNA was extracted and quantified by qPCR. (FIG. 10I) Densitometric analysis FIG. 9D-E. (FIG. 10J) RD cells were treated with peptides S78 or and then infected with EV-A71 at the MOI of 1 for 12 hours. Extracellular viral RNA was extracted and quantified by qPCR. (FIG. 10K) Viral titration was calculated by TCID50. The Statistical analyses were carried out using Student's t-test. *: p<0.05, **: p<0.01, ***: p<0.001. Data are expressed as mean ±SD.
FIGS. 11A-11G Inhibition of EV-A71 Protein Translation and Viral Reproduction by peptide S82A. (FIG. 11A) HEK 293T cells were pre-treated with peptides NC, S78, S78A, S82A, or S78-3A at the concentration of 25 μM for 2 hours and then co-transfected with Hsp27-WT plasmid (800 ng), pIRES reporter plasmid (200 ng) and 2A^pro-expressing plasmid for 24 h, then the luciferase activity was measured. (FIG. 11B) RD cells were pre-treated with peptides NC at indicated concentrations for 2 hours and infected with EV-A71 at the MOI of 1 for 9 hours. Intracellular viral RNA was extracted and quantified by qPCR. (FIG. 11C-11E) RD cells were treated with peptides NC, S82A, or S78-3A at indicated concentrations for 2 hours and then infected with EV-A71 at the MOI of 1 for 9 hours. Cell lysates were collected for western blot assay. EV-A71 VP1 were detected. β-Actin was detected as an internal control. (FIG. 11F) Densitometric analysis of the EV-A71 VP1 level in FIG. S7C-E was quantified and normalized with β-Actin using ImageJ. (FIG. 11G) RD cells were treated with peptides S78, S78A, S82A, or S78-3A at the concentration of 25 μM for 2 hours and then infected with EV-A71 at the MOI of 0.1 for 24 hours. Viral titration was calculated. The Statistical analyses were carried out using Student's t-test. *: p<0.05, **: p<0.01, ***: p<0.001. Data are expressed as mean ±SD. […]

[2] = tested on: EV-A71 IRES activity; test: Dual-luciferase IRES reporter assay in HEK 293T cells pre-treated with peptides; assay type: cell-based; conditions: 25 μM for 2 hours; for decrease of 2Apro-induced viral IRES activity: 24 h
Protocol: as §1
FIGS. 11A-11G Inhibition of EV-A71 Protein Translation and Viral Reproduction by peptide S82A. (FIG. 11A) HEK 293T cells were pre-treated with peptides NC, S78, S78A, S82A, or S78-3A at the concentration of 25 μM for 2 hours and then co-transfected with Hsp27-WT plasmid (800 ng), pIRES reporter plasmid (200 ng) and 2A^pro-expressing plasmid for 24 h, then the luciferase activity was measured. (FIG. 11B) RD cells were pre-treated with peptides NC at indicated concentrations for 2 hours and infected with EV-A71 at the MOI of 1 for 9 hours. Intracellular viral RNA was extracted and quantified by qPCR. […] EV-A71 VP1 were detected. β-Actin was detected as an internal control. (FIG. 11F) Densitometric analysis of the EV-A71 VP1 level in FIG. S7C-E was quantified and normalized with β-Actin using ImageJ. […] Viral titration was calculated. […] Data are expressed as mean ±SD.
HEK 293T cells were seeded in 24-wells, and then co-transfected with plasmids to simultaneously express 2A^pro (200 ng), pIRES reporter (200 ng), and the wild-type Hsp27 or its mutants (800 ng). […] The Renilla luciferase (RLuc) and Firefly luciferase (FLuc) activity were determined by using a dual-luciferase reporter assay (Promega) according to the manufacturer's instructions in a Lumat LB9507 bioluminometer.

| Molecule | decrease of viral RNA level ([1]; 8 μM 2 hours before infection, Hsp27 over-expressing HEK 293T cells) | effect on viral RNA level ([1]; Hsp27 S78A-expressing HEK 293T cells) | effect on viral RNA level ([1]; Hsp27 S78D-expressing HEK 293T cells) | decrease of extracellular viral RNA level [1] | decrease of viral RNA [1] | decrease of 2Apro-induced viral IRES activity [2] | viral RNA level (in words) [1] | effect on viral IRES activity (in words) ([2]; 24 h (FIG. 11A)) |
| --- | --- | --- | --- | --- | --- | --- | --- | --- |
| C[S+]([O-])c1ccc(-c2nc(-c3ccncc3)c(-c3ccc(F)cc3)[nH]2)cc1 (stereo not drawn) [SB203580, reference compound] | 50% | no obvious effects | no obvious effects | – | – | – | – | – |
| Ac-RKKRRQRRRAYSRALARQLSS-NH2 [S78A] | – | – | – | 30 folds | 46% | about 10% | – | – |
| Ac-RKKRRQRRRAYSRALSRQLSS-NH2 [S78] | – | – | – | 800 folds | 82% | 34% | dramatically reduced | – |
| Ac-RKKRRQRRRYSREANQPKPSPKRESGEE-NH2 [NC, reference compound] | – | – | – | – | – | – | no effect | did not affect |

— patent US20250368687A1, “SHORT SYNTHETIC PEPTIDES AND USES THEREOF IN THE TREATMENT OF ENTEROVIRUS INFECTION” (CITY UNIVERSITY OF HONG KONG, priority 2024, published 2025)
